Measured values as given in patent US20130196977A1, “USE OF ORGANIC COMPOUNDS” (priority 2004, published 2013).
“Also recorded” adds a separate entry of the source.

Columns and labels:
Type in all cases: in vivo, rat
[1] = tested on: double transgenic rats expressing human renin and human angiotensinogen (dTGR); experiment: M-mode echocardiography of LV wall thickness / hypertrophy in dTGR; conditions: dTGR at 9 weeks
Method: (§1) As an example, four-week-old, male dTGR are allowed to develop hypertension and are placed in metabolic cages at 5.5 weeks of age. Systolic blood pressure (tail-cuff) and 24 h albumin excretion (ELISA, CellTrend, Germany) are measured as described earlier by Muller et al. Am J Pathol. 2002, 161:1679-93 and Muller et al. Am J Pathol. 2004, 164:521-32. The dTGR are matched at week 6 in terms of 24 h albumin excretion and distributed in five groups of 19 rats each. Treatments begin when the rats are aged 6 weeks. The rats receive vehicle treatment, aliskiren at 0.3 mg/kg/day and 3 mg/kg/day (by subcutaneous minipump), valsartan 1 mg/kg/day, and valsartan 10 mg/kg/day (given in the food). The low dose of valsartan is selected as a threshold treatment to reduce mortality yet only minimally effect blood pressure and organ damage. We know from earlier studies that vehicle-treated animals would not survive beyond 8 weeks of age and thus this low dose valsartan group will serve as a control group at 9 weeks. Echocardiography (M-mode tracings in the short axis and Tissue-Doppler-imaging;, n=5-6 per group at weeks 7 and 9) is performed with a 15 MHz phased-array transducer under isoflurane anesthesia (Mazak et al. Circulation. 2004; 109:2792-800). Three measurements per heart are determined, averaged, and statistically analyzed. M-mode is performed in a LV short axis and measured according to the leading edge-method. Total wall thickness is calculated as sum of septum+left ventricular posterior wall.

[2] = tested on: atrial natriuretic peptide (ANP) mRNA; experiment: RT-PCR of left ventricular ANP mRNA in dTGR; conditions: 9 weeks
Method: as §1, with “wall. For RT-PCR, LV mRNA is isolated with TRIZOL (Gibco Life Technology). RT-PCR for α-myosin heavy chain (α-MHC) and β-MHC, as well as for atrial natriuretic peptide (ANP) is carried out in 25 μL SybrGreen PCR Master Mix (Applied Biosystems, Germany) containing […] primer and 1 μL of the reverse transcription reaction in a 5700 Sequence Detection System (Applied Biosystems). […]” for “wall.”

[3] = tested on: double transgenic rats expressing human renin and human angiotensinogen (dTGR); experiment: Tissue Doppler assessment of diastolic filling (Ea/Aa) in dTGR; conditions: dTGR at 9 weeks
Method: as §1
Tissue Doppler measures the velocity of the longitudinal cardiac movement at the basal septum, allowing assessment of diastolic filling Tissue Doppler measurements are performed with the sample volume in the basal septum in a four-chamber view. […] The measurements represent velocities of peak early (Ea) and late (Aa) diastolic expansion velocities. The Ea/Aa ratio is reported as an index of diastolic function.

[4] = tested on: double transgenic rats expressing human renin and human angiotensinogen (dTGR); experiment: Cardiac hypertrophy index at sacrifice in dTGR; conditions: for cardiac hypertrophy index score: p<0.05
Method: as §1, with “To circumvent this problem, transgenic rats have been developed harboring either the human renin or the human angiotensinogen genes. […] Consequently, the single transgenic rats (i.e., transgenic for either human angiotensinogen or renin) are normotensive. […] As” for “As”, “wall. Rats are sacrificed at age 9 weeks. The kidneys and hearts are removed and washed with ice-cold saline, blotted dry, and weighed. Tissue preparation and immunohistological techniques are performed as previously described Muller et al. Am J Pathol. 2002, 161:1679-93. Sections are incubated with primary antibodies against rat monocytes/macrophages (ED-1, Serotec, Germany), MHC II+, CD4+, and CD86+ cells (all BD Pharmingen, Germany). Scoring of infiltrated cells is performed using the program KS 300 3.0 (Zeiss, Germany). Fifteen different areas of each kidney (n=5 in all groups) are analyzed. A mean score for each animal is computed and used to derive a group mean score. Analyses are conducted without knowledge of the specific treatment.” for “wall.”

[5] = tested on: α-myosin heavy chain (α-MHC) and β-MHC mRNA; experiment: RT-PCR of left ventricular α-MHC and β-MHC mRNA in dTGR; conditions: left ventricle, 9 weeks
Method: as §1, with “wall. For RT-PCR, LV mRNA is isolated with TRIZOL (Gibco Life Technology). RT-PCR for α-myosin heavy chain (α-MHC) and β-MHC, as well as for atrial natriuretic peptide (ANP) is carried out in 25 μL SybrGreen PCR Master Mix (Applied Biosystems, Germany) containing […] primer and 1 μL of the reverse transcription reaction in a 5700 Sequence Detection System (Applied Biosystems). Thermal cycling conditions comprise an initial denaturation step at 95° C. for 10 min, followed by 95° C. for 15 s and 65° C. for 1 min for 40 cycles. mRNA expression is standardized to the hypoxanthine phosphoribosyl transferase gene as a housekeeping gene (primer sequences available on request).” for “wall.”

[6] = aliskiren 3 mg/kg/d, listed as Alisk
[7] = valsartan 1 mg/kg/d in the food
[8] = valsartan 10 mg/kg/d in the food

COCCCOc1cc(C[C@@H](C[C@H](N)[C@@H](O)C[C@H](C(=O)NCC(C)(C)C(N)=O)C(C)C)C(C)C)ccc1OC [aliskiren, 2(S),4(S),5(S),7(S)—N-(3-amino-2,2-dimethyl-3-oxopropyl)-2,7-di(1-methylethyl)-4-hydroxy-5-amino-8-[4-methoxy-3-(3-methoxy-propoxy)phenyl]-octanamide]
left ventricular hypertrophy (in words) ([1]; aliskiren 0.3 mg/kg/d): markedly ameliorated
left ventricular hypertrophy (in words) ([1]; aliskiren 0.3 mg/kg/d, listed as Aliskiren): reduce left ventricular hypertrophy
wall thickness (septum + LV posterior wall) ([1]; aliskiren 3 mg/kg/d subcutaneous minipump): about 2.2 mm
left ventricular hypertrophy (in words) ([1]; aliskiren 3 mg/kg/d): markedly ameliorated; also recorded: lowest wall thickness values
left ventricular hypertrophy (in words) [1, 6]: reduce left ventricular hypertrophy; also recorded: normalized LV dimensions
LV ANP mRNA expression compared to valsartan 1 mg/kg/d treated dTGR ([2]; aliskiren 0.3 mg/kg/d): reduced
LV ANP mRNA expression compared to valsartan 1 mg/kg/d treated dTGR ([2]; aliskiren 3 mg/kg/d): reduced
Ea/Aa ratio ([3]; aliskiren 0.3 mg/kg/d (low dose) subcutaneous minipump): about 1.5
Ea/Aa ratio ([3]; aliskiren 0.3 mg/kg/d (low dose) subcutaneous minipump, listed as Alisk): 1.5
diastolic dysfunction / diastolic filling (in words) ([3]; aliskiren 0.3 mg/kg/d): markedly improve
diastolic dysfunction / diastolic filling (in words) ([3]; aliskiren 0.3 mg/kg/d, listed as Alisk): appropriate diastolic filling
Ea/Aa ratio ([3]; aliskiren 3 mg/kg/d (high dose) subcutaneous minipump): about 1.4
Ea/Aa ratio ([3]; aliskiren 3 mg/kg/d (high dose) subcutaneous minipump, listed as Alisk): 1.5
diastolic dysfunction / diastolic filling (in words) ([3]; aliskiren 3 mg/kg/d): markedly improve; also recorded: best diastolic filling
diastolic dysfunction / diastolic filling (in words) [3, 6]: appropriate diastolic filling
cardiac hypertrophy index score ([4]; aliskiren 0.3 mg/kg/d subcutaneous minipump from week 6, age 9 weeks): decreases
cardiac hypertrophy index score ([4]; aliskiren 3 mg/kg/d subcutaneous minipump from week 6, age 9 weeks): decreases
cardiac hypertrophy index compared to valsartan 10 mg/kg/d treated dTGR ([4]; aliskiren 3 mg/kg/d, age 9 weeks): significantly lower
shift from α-MHC expression to the fetal β-MHC isoform (LV mRNA) ([5]; aliskiren 0.3 mg/kg/d): prevent the shift
shift from α-MHC expression to the fetal β-MHC isoform (LV mRNA) ([5]; aliskiren 3 mg/kg/d): prevent the shift
shift from α-MHC expression to the fetal β-MHC isoform (LV mRNA) ([5]; aliskiren 3 mg/kg/d, listed as Aliskiren): most effective

CCCCC(=O)N(Cc1ccc(-c2ccccc2-c2nnn[nH]2)cc1)[C@H](C(=O)O)C(C)C [valsartan]
wall thickness (septum + LV posterior wall) [1, 7]: about 3.4 mm
left ventricular hypertrophy (in words) ([1]; valsartan 1 mg/kg/d): concentric hypertrophy; also recorded: severe left ventricular hypertrophy; also recorded: severe septal and posterior wall hypertrophy
wall thickness (septum + LV posterior wall) [1, 8]: about 2.7 mm
left ventricular hypertrophy (in words) ([1]; valsartan 10 mg/kg/d): markedly ameliorated
left ventricular hypertrophy (in words) ([1]; valsartan 10 mg/kg/d, listed as Val): reduces septal and posterior wall hypertrophy substantially
LV ANP mRNA expression compared to valsartan 1 mg/kg/d treated dTGR ([2]; valsartan 10 mg/kg/d): reduces the expression of this gene, but not to a significant degree
Ea/Aa ratio [3, 7]: about 0.68
Ea/Aa ratio ([3]; valsartan 1 mg/kg/d in the food, listed as Val): 0.66
diastolic dysfunction / diastolic filling (in words) ([3]; valsartan 1 mg/kg/d): marked diastolic dysfunction
diastolic dysfunction / diastolic filling (in words) ([3]; valsartan 1 mg/kg/d, listed as Val): severe diastolic dysfunction
diastolic dysfunction / diastolic filling (in words) ([3]; valsartan 10 mg/kg/d (high dose)): still present
diastolic dysfunction / diastolic filling (in words) ([3]; valsartan 10 mg/kg/d (high dose), listed as Val): indicating diastolic dysfunction
Ea/Aa ratio [3, 8]: about 1.0
Ea/Aa ratio ([3]; valsartan 10 mg/kg/d in the food, listed as Val): 1.0
cardiac hypertrophy index score ([4]; valsartan 10 mg/kg/d in the food from week 6, age 9 weeks): decreases
shift from α-MHC expression to the fetal β-MHC isoform (LV mRNA) ([5]; valsartan 10 mg/kg/d): prevent the shift
